From ChEMBL document CHEMBL1201862, “PubChem BioAssay data set” (2004)
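Test compounds were applied to cells in 96-well plates for 48 hours at 5 doses. Here, GI50 denotes the concentration required for 50% inhibition of growth.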 Activity calls are given as the source filed them. No stated cut-off is given here; in the data, active = GI50 up to about 1.1 µM and inactive = higher.

Columns and labels:
Assay in all cases: growth of human tumour cells (NCI), 48 h
ACHN = test system: ACHN
SR = test system: SR
RPMI-8226 = test system: RPMI-8226
IGROV-1 = test system: IGROV-1
EKVX = test system: EKVX
HOP-62 = test system: HOP-62
UO-31 = test system: UO-31
MDA-MB-231 = test system: MDA-MB-231
OVCAR-3 = test system: OVCAR-3
TK-10 = test system: TK-10
OVCAR-5 = test system: OVCAR-5
DU-145 = test system: DU-145
HCT-15 = test system: HCT-15
M14 = test system: M14
HL-60 = test system: HL-60
PC-3 = test system: PC-3
NCI-H23 = test system: NCI-H23
HCC 2998 = test system: HCC 2998
SK-OV-3 = test system: SK-OV-3
SW-620 = test system: SW-620
SF-295 = test system: SF-295
786-0 = test system: 786-0
COLO 205 = test system: COLO 205
HOP-92 = test system: HOP-92
Malme-3M = test system: Malme-3M
KM12 = test system: KM12
T47D = test system: T47D
CCRF-CEM = test system: CCRF-CEM
CAKI-1 = test system: CAKI-1
Hs-578T = test system: Hs-578T
U-251 = test system: U-251
MDA-N = test system: MDA-N
UACC-62 = test system: UACC-62
SK-MEL-2 = test system: SK-MEL-2
MDA-MB-435 = test system: MDA-MB-435
SF-539 = test system: SF-539
NCI/ADR-RES = test system: NCI/ADR-RES
A549 = test system: A549
A498 = test system: A498
SK-MEL-28 = test system: SK-MEL-28
HCT-116 = test system: HCT-116
SK-MEL-5 = test system: SK-MEL-5
MOLT-4 = test system: MOLT-4
OVCAR-8 = test system: OVCAR-8
SNB-19 = test system: SNB-19
SN12C = test system: SN12C
NCI-H522 = test system: NCI-H522
MCF7 = test system: MCF7
K562 = test system: K562
NCI-H460 = test system: NCI-H460
SF-268 = test system: SF-268
RXF 393 = test system: RXF 393
LOX IMVI = test system: LOX IMVI

With `O=C(O)c1cccc(NC(C(=O)c2ccccc2)c2ccccc2)c1` (stereo not drawn) the GI50 (ACHN) was > 100 µM (inactive), the GI50 (SR) was > 100 µM (inactive) and the GI50 (RPMI-8226) was > 100 µM (inactive). The GI50 (IGROV-1) was > 100 µM (inactive), the GI50 (EKVX) was > 100 µM (inactive) and the GI50 (HOP-62) was > 100 µM (inactive). The GI50 (UO-31) was > 100 µM (inactive), the GI50 (MDA-MB-231) was > 100 µM (inactive) and the GI50 (OVCAR-3) was > 100 µM (inactive). The GI50 (TK-10) was > 100 µM (inactive), the GI50 (OVCAR-5) was > 100 µM (inactive) and the GI50 (DU-145) was > 100 µM (inactive). For the same molecule, the GI50 (HCT-15) was greater than 100 µM, the GI50 (M14) was > 100 µM (inactive) and the GI50 (HL-60) was > 100 µM (inactive). The GI50 (PC-3) was > 100 µM (inactive), the GI50 (NCI-H23) was > 100 µM (inactive) and the GI50 (HCC 2998) was > 100 µM (inactive). For the same molecule, the GI50 (SK-OV-3) was > 100 µM (inactive), the GI50 (SW-620) was > 100 µM (inactive) and the GI50 (SF-295) was > 100 µM (inactive). The GI50 (786-0) was > 100 µM (inactive), the GI50 (COLO 205) was > 100 µM (inactive) and the GI50 (HOP-92) was 34 µM (inactive). For the same molecule, the GI50 (Malme-3M) was > 100 µM (inactive), the GI50 (KM12) was > 100 µM (inactive) and the GI50 (T47D) was > 100 µM (inactive). The GI50 (CCRF-CEM) was > 100 µM (inactive), the GI50 (CAKI-1) was > 100 µM (inactive) and the GI50 (Hs-578T) was 714 nM (active). The GI50 (U-251) was > 100 µM (inactive), the GI50 (MDA-N) was > 100 µM (inactive) and the GI50 (UACC-62) was > 100 µM (inactive). For the same molecule, the GI50 (SK-MEL-2) was > 100 µM (inactive), the GI50 (MDA-MB-435) was > 100 µM (inactive) and the GI50 (SF-539) was > 100 µM (inactive). The GI50 (NCI/ADR-RES) was > 100 µM (inactive), the GI50 (A549) was > 100 µM (inactive) and the GI50 (A498) was > 100 µM (inactive). For the same molecule, the GI50 (SK-MEL-28) was > 100 µM (inactive), the GI50 (HCT-116) was > 100 µM (inactive) and the GI50 (SK-MEL-5) was > 100 µM (inactive). For the same molecule, the GI50 (MOLT-4) was > 100 µM (inactive), the GI50 (OVCAR-8) was > 100 µM (inactive) and the GI50 (SNB-19) was > 100 µM (inactive). For the same molecule, the GI50 (SN12C) was > 100 µM (inactive), the GI50 (NCI-H522) was 78.9 µM (inactive) and the GI50 (MCF7) was > 100 µM (inactive). The GI50 (K562) was > 100 µM (inactive), the GI50 (NCI-H460) was > 100 µM (inactive) and the GI50 (SF-268) was > 100 µM (inactive). For the same molecule, the GI50 (RXF 393) was > 100 µM (inactive) and the GI50 (LOX IMVI) was > 100 µM (inactive).
